Experimental data as given in patent publication US20060217394A1, “Treatment of anhedonia” (priority 2005, published 2006).

Columns and labels:
[1] = test system: patients receiving SSRI or SNRI treatment for major depressive disorder; assay: Retrospective review of patients receiving SSRI or SNRI treatment for major depressive disorder: late-appearing anhedonic symptoms; assay type: in vivo; details: individual patient
From the text: Although in the majority of so afflicted patients the diagnosis will be apparent during this interval, it should be understood that iatrogenic anhedonia may appear earlier or later during any course of treatment with medications that increase serotonin transmission efficiency with or without similar increases in the efficiency and availability of norepinephrine. The rather substantial number of patients suffering from the condition over diverse population samples may be postulated to be due to a genetic predisposition for the condition.
Patients in whom SSRIs produced excellent remission of major depressive disorder for the period shown in the 5th column
The result of decreased dopaminergic efficiency and/or availability may be dysphoric interference with the ability to experience the normal range of positive affect over the range from mild interest to pleasant excitement, and from ordinary contentment to great joy. Such decreased dopaminergic transmission efficiency may be caused by agents that block the serotonin transporter alone, and/or those that block both the serotonin transporter and the norepinephrine transporter, and/or those that increase the synthesis and release of both norepinephrine and serotonin and any mechanism whereby the efficiency of serotonergic transmission is enhanced.

[2] = test system: patients afflicted with anhedonia; assay: Treatment of iatrogenic anhedonia in patients with agents enhancing dopaminergic availability and/or efficiency; assay type: in vivo; details: about 2.5 mg prn, no more than once daily, on as few as two to five days per week
[3] = period for which the SSRI produced excellent remission of major depressive disorder

| SMILES | SSRI duration before new symptoms [1, 3] | improvement of anhedonia [2] | SSRI duration before new symptoms ([1]; period of excellent remission, some patients 10 years intermittent (stopped Rx each time anomie experienced)) |
| --- | --- | --- | --- |
| CN(C)CCCC1(c2ccc(F)cc2)OCc2cc(C#N)ccc21 (stereo not drawn) [citalopram] | 6 months |  |  |
| COC(=O)[C@H](c1ccccc1)[C@H]1CCCCN1 [dexmethylphenidate] |  | Satisfactory and ongoing improvement |  |
| CNCCC(Oc1ccc(C(F)(F)F)cc1)c1ccccc1 (stereo not drawn) [fluoxetine] | 2 years |  | 1 year |
| Fc1ccc([C@@H]2CCNC[C@H]2COc2ccc3c(c2)OCO3)cc1 [paroxetine] | 10 years |  |  |
| CN[C@H]1CC[C@@H](c2ccc(Cl)c(Cl)c2)c2ccccc21 [sertraline] | 2 years |  |  |
